Columns and labels:
[1] = test system: Blumeria Graminis f. sp. Tritici (Erysiphe Graminis f. sp. Tritici); experiment: Blumeria graminis f. sp. tritici / wheat / leaf disc preventative (powdery mildew on wheat); assay type: in vivo; details: foliar, wheat leaf disc cv. Kanzler, compared to untreated, 6-8 days after application, read-out: disease control
Protocol: Fungicidal Activity Against Blumeria Graminis f. sp. Tritici (Erysiphe Graminis f. sp. Tritici)/Wheat/Leaf Disc Preventative (Powdery Mildew on Wheat) Wheat leaf segments cv. Kanzler were placed on agar in a multiwell plate (24-well format) and sprayed with the formulated test compound diluted in water. The leaf disks were inoculated by shaking powdery mildew infected plants above the test plates 1 day after application. The inoculated leaf disks were incubated at 20° C. and 60% rh under a light regime of 24 h darkness followed by 12 h light/12 h darkness in a climate chamber and the activity of a compound was assessed as percent disease control compared to untreated when an appropriate level of disease damage appears on untreated check leaf segments (6-8 days after application).

[2] = test system: Puccinia Recondita f. sp. Tritici; experiment: Puccinia recondita f. sp. tritici / wheat / leaf disc preventative (brown rust); assay type: in vivo; details: foliar, wheat leaf disc cv. Kanzler, compared to untreated, 7-9 days after application, read-out: disease control
Protocol: Fungicidal Activity Against Puccinia Recondita f. sp. Tritici/Wheat/Leaf Disc Preventative (Brown Rust) Wheat leaf segments cv. Kanzler were placed on agar in multiwell plates (24-well format) and sprayed with the formulated test compound diluted in water. The leaf disks were inoculated with a spore suspension of the fungus 1 day after application. The inoculated leaf segments were incubated at 19° C. and 75% rh under a light regime of 12 h light/12 h darkness in a climate cabinet and the activity of a compound was assessed as percent disease control compared to untreated when an appropriate level of disease damage appears in untreated check leaf segments (7-9 days after application).

[3] = test system: Puccinia Recondita f. sp. Tritici; experiment: Puccinia recondita f. sp. tritici / wheat / leaf disc curative (brown rust); assay type: in vivo; details: foliar, 192 h, compared to untreated, 8 days after inoculation, read-out: disease control
Protocol: Fungicidal Activity Against Puccinia Recondita f. sp. Tritici/Wheat/Leaf Disc Curative (Brown Rust) Wheat leaf segments are placed on agar in multiwell plates (24-well format). The leaf disks are then inoculated with a spore suspension of the fungus. One day after inoculation the test solution is applied. After appropriate incubation the activity of a compound is assessed 8 dpi (days after inoculation) as curative fungicidal activity. Dose range: 200-22 ppm.

[4] = test system: Mycosphaerella Arachidis (Cercospora Arachidicola); experiment: Mycosphaerella arachidis (Cercospora arachidicola) / liquid culture (early leaf spot); assay type: cell-based; details: liquid culture (PDB), growth inhibition photometrically 4-5 days after application, read-out: disease control
Protocol: Fungicidal Activity Against Mycosphaerella Arachidis (Cercospora Arachidicola)/Liquid Culture (Early Leaf Spot) Conidia of the fungus from cryogenic storage were directly mixed into nutrient broth (PDB potato dextrose broth). After placing a (DMSO) solution of test compound into a microtiter plate (96-well format), the nutrient broth containing the fungal spores was added. The test plates were incubated at 24° C. and the inhibition of growth was determined photometrically 4-5 days after application.

[5] = test system: Mycosphaerella Graminicola (Septoria Tritici); experiment: Mycosphaerella graminicola (Septoria tritici) / liquid culture (Septoria blotch); assay type: cell-based; details: Zymoseptoria tritici, liquid culture (PDB), growth inhibition photometrically 4-5 days after application, read-out: disease control
Protocol: Fungicidal Activity Against Mycosphaerella Graminicola (Septoria Tritici)/Liquid Culture (Septoria Blotch) Conidia of the fungus from cryogenic storage were directly mixed into nutrient broth (PDB potato dextrose broth). After placing a (DMSO) solution of test compound into a microtiter plate (96-well format), the nutrient broth containing the fungal spores was added. The test plates were incubated at 24° C. and the inhibition of growth was determined photometrically 4-5 days after application.

[6] = test system: Thanatephorus Cucumeris (Rhizoctonia Solani); experiment: Thanatephorus cucumeris (Rhizoctonia solani) / liquid culture (foot rot, damping-off); assay type: cell-based; details: liquid culture (PDB), growth inhibition photometrically 3-4 days after application, read-out: disease control
Protocol: Fungicidal Activity Against Thanatephorus Cucumeris (Rhizoctonia Solani)/Liquid Culture (Foot Rot, Damping-Off) Mycelia fragments of a newly grown liquid culture of the fungus were directly mixed into nutrient broth (PDB potato dextrose broth). After placing a (DMSO) solution of the test compounds into a microtiter plate (96-well format), the nutrient broth containing the fungal material was added. The test plates were incubated at 24° C. and the inhibition of growth was determined photometrically 3-4 days after application. Compounds (from table T1) 1, 2, 4, 7, 8, 10, 11, 13, 14 and 17 at 200 ppm give at least 80% disease control in this test when compared to untreated control leaf disks under the same conditions, which show extensive disease development.

OC(Cn1cncn1)(c1ccc(F)cc1)C1(c2ccc(Cl)cn2)CC1 (centres unmarked) [Compound 14, 1-[1-(5-chloro-2-pyridyl)cyclopropyl]-1-(4-fluorophenyl)-2-(1,2,4-triazol-1-yl)ethanol]
≥ 80%: pest or weed control at 200 ppm [1] | pest or weed control at 200 ppm [2] | pest or weed control at 200 ppm [3] | inhibition of growth at 200 ppm [4] | inhibition of growth at 200 ppm [5] | inhibition of growth at 200 ppm [6]

OC(Cn1cncn1)(c1ccc(F)cc1)C1(c2ccc(Br)cn2)CC1 (centres unmarked) [Compound 4, 1-[1-(5-bromo-2-pyridyl)cyclopropyl]-1-(4-fluorophenyl)-2-(1,2,4-triazol-1-yl)ethanol]
≥ 80%: pest or weed control at 200 ppm [1] | pest or weed control at 200 ppm [2] | pest or weed control at 200 ppm [3] | inhibition of growth at 200 ppm [4] | inhibition of growth at 200 ppm [6]

OC(Cn1cncn1)(c1ccc(Cl)cc1)C1(c2ccc(Cl)cn2)CC1 (centres unmarked) [Compound 11, 1-(4-chlorophenyl)-1-[1-(5-chloro-2-pyridyl)cyclopropyl]-2-(1,2,4-triazol-1-yl)ethanol]
≥ 80%: pest or weed control at 200 ppm [1] | pest or weed control at 200 ppm [2] | pest or weed control at 200 ppm [3] | inhibition of growth at 200 ppm [4] | inhibition of growth at 200 ppm [5] | inhibition of growth at 200 ppm [6]

OC(Cn1cncn1)(c1ccc(F)cc1)C1(c2ncc(Br)cc2Cl)CC1 (centres unmarked) [Compound 2, 1-[1-(5-bromo-3-chloro-2-pyridyl)cyclopropyl]-1-(4-fluorophenyl)-2-(1,2,4-triazol-1-yl)ethanol]
≥ 80%: pest or weed control at 200 ppm [1] | pest or weed control at 200 ppm [2] | pest or weed control at 200 ppm [3] | inhibition of growth at 200 ppm [4] | inhibition of growth at 200 ppm [5] | inhibition of growth at 200 ppm [6]

OC(Cn1cncn1)(c1ccc(F)cc1)C1(c2ccc(C3CC3)cn2)CC1 (centres unmarked) [Compound 7, 1-[1-(5-cyclopropyl-2-pyridyl)cyclopropyl]-1-(4-fluorophenyl)-2-(1,2,4-triazol-1-yl)ethanol]
≥ 80%: pest or weed control at 200 ppm [1] | pest or weed control at 200 ppm [2] | pest or weed control at 200 ppm [3] | inhibition of growth at 200 ppm [4] | inhibition of growth at 200 ppm [5] | inhibition of growth at 200 ppm [6]

OC(Cn1cncn1)(c1ccc(F)cc1)C1(c2ccc(C(F)(F)F)cn2)CC1 (centres unmarked) [Compound 13, 1-(4-fluorophenyl)-2-(1,2,4-triazol-1-yl)-1-[1-[5-(trifluoromethyl)-2-pyridyl]cyclopropyl]ethanol]
≥ 80%: pest or weed control at 200 ppm [1] | pest or weed control at 200 ppm [2] | pest or weed control at 200 ppm [3] | inhibition of growth at 200 ppm [4] | inhibition of growth at 200 ppm [5] | inhibition of growth at 200 ppm [6]

OC(Cn1cncn1)(c1ccc(F)cc1)C1(c2ccccn2)CC1 (centres unmarked) [Compound 10, 1-(4-fluorophenyl)-1-[1-(2-pyridyl)cyclopropyl]-2-(1,2,4-triazol-1-yl)ethanol]
≥ 80%: pest or weed control at 200 ppm [1] | pest or weed control at 200 ppm [2] | pest or weed control at 200 ppm [3] | inhibition of growth at 200 ppm [4] | inhibition of growth at 200 ppm [5] | inhibition of growth at 200 ppm [6]

OC(Cn1cncn1)(c1ccc(F)cc1)C1(c2ccc(Br)cn2)CCC1 (centres unmarked) [Compound 17, 1-[1-(5-bromo-2-pyridyl)cyclobutyl]-1-(4-fluorophenyl)-2-(1,2,4-triazol-1-yl)ethanol]
≥ 80%: pest or weed control at 200 ppm [1] | pest or weed control at 200 ppm [2] | pest or weed control at 200 ppm [3] | inhibition of growth at 200 ppm [4] | inhibition of growth at 200 ppm [5] | inhibition of growth at 200 ppm [6]

N#Cc1ccc(-c2ccc(C3(C(O)(Cn4cncn4)c4ccc(F)cc4)CC3)nc2)cc1 (centres unmarked) [Compound 8, 4-[6-[1-[1-(4-fluorophenyl)-1-hydroxy-2-(1,2,4-triazol-1-yl)ethyl]cyclopropyl]-3-pyridyl]benzonitrile]
≥ 80%: pest or weed control at 200 ppm [1] | pest or weed control at 200 ppm [2] | pest or weed control at 200 ppm [3] | inhibition of growth at 200 ppm [4] | inhibition of growth at 200 ppm [5] | inhibition of growth at 200 ppm [6]

OC(Cn1cncn1)(c1ccc(Cl)cc1)C1(c2ccccn2)CC1 (centres unmarked) [Compound 1, 1-(4-chlorophenyl)-1-[1-(2-pyridyl)cyclopropyl]-2-(1,2,4-triazol-1-yl)ethanol]
≥ 80%: pest or weed control at 200 ppm [1] | pest or weed control at 200 ppm [2] | pest or weed control at 200 ppm [3] | inhibition of growth at 200 ppm [4] | inhibition of growth at 200 ppm [5] | inhibition of growth at 200 ppm [6]

From patent US9655363B2, “Microbiocides” (Syngenta Participations AG, priority 2013, dated 2017)
